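Growth conditions: 96-well plates. Treatment: test compound, 48 hours, 5 concentrations. Analysis: linear interpolation between bracketing concentrations; unreached endpoints set to highest concentration. GI50: concentration for 50% inhibition of growth.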 Active and inactive are the calls of the source. Cut-off read from the data, not from the text of the source: active = GI50 up to about 1.1 µM and inactive = higher.
How the values were obtained:
Test in all cases: DTP human tumour cell line panel, 48 h
[1] = test system: 786-0
[2] = test system: BT-549
[3] = test system: CCRF-CEM
[4] = test system: EKVX
[5] = test system: HCC 2998
[6] = test system: HCT-15
[7] = test system: HOP-62
[8] = test system: MDA-MB-435
[9] = test system: NCI-H226
[10] = test system: NCI-H522
[11] = test system: NCI/ADR-RES
[12] = test system: OVCAR-3
[13] = test system: OVCAR-5
[14] = test system: SF-268
[15] = test system: SK-MEL-2
[16] = test system: T47D
[17] = test system: UACC-62
[18] = test system: RPMI-8226
[19] = test system: SK-OV-3
[20] = test system: LOX IMVI

Measured: GI50

N#C[BH2-][n+]1cn(C2CC(O)C(COP(=O)(O)OC3CC(n4cnc5c(N)ncnc54)OC3CO)O2)c2nc(N)[nH]c(=O)c21 (stereo not given)
> 100 µM: [6]
inactive: [1] > 100 µM | [2] > 100 µM | [3] > 100 µM | [4] > 100 µM | [5] > 100 µM | [7] > 100 µM | [8] > 100 µM | [9] > 100 µM | [10] > 100 µM | [11] > 100 µM | [12] > 100 µM | [13] > 100 µM | [14] > 100 µM | [15] > 100 µM | [16] > 100 µM | [17] > 100 µM

CC(C(N)=O)N(C)C(=O)c1cc2ccccc2[n+](Cc2ccccc2)c1 (stereo not given)
inactive: [1] > 100 µM | [2] > 100 µM | [3] > 100 µM | [5] > 100 µM | [8] > 100 µM | [9] > 100 µM | [10] > 100 µM | [11] > 100 µM | [12] > 100 µM | [13] > 100 µM | [18] > 100 µM | [14] > 100 µM | [15] > 100 µM | [16] > 100 µM | [17] > 100 µM
> 100 µM: [6]

CCOC(=O)NC(=S)NC(C)c1ccccc1 (stereo not given)
> 100 µM: [6]
inactive: [1] > 100 µM | [2] > 100 µM | [3] > 100 µM | [4] > 100 µM | [5] > 100 µM | [7] > 100 µM | [8] > 100 µM | [9] > 100 µM | [10] > 100 µM | [11] > 100 µM | [12] > 100 µM | [13] > 100 µM | [18] 27.2 µM | [14] > 100 µM | [15] > 100 µM | [19] > 100 µM | [16] 98.6 µM | [17] > 100 µM

Cc1cc(N(CCC#N)CCC#N)ccc1C(/N=N/c1ccccc1)=N\NC(=O)c1cc(Cl)ccc1O
18.4 µM: [6]
inactive: [1] 23.9 µM | [2] 18.2 µM | [3] 16.6 µM | [4] 30.5 µM | [5] 15.8 µM | [7] 41.8 µM | [8] 36.4 µM | [9] 20.5 µM | [10] 13.6 µM | [11] 20.1 µM | [12] 18 µM | [13] > 10 µM | [18] 64.7 µM | [14] 30.1 µM | [15] 32.4 µM | [19] 71.4 µM | [16] 11.4 µM | [17] 7.71 µM

COc1ccc2c(c1)OC1c3ccccc3OCC21 (stereo not given)
62.7 µM: [6]
inactive: [1] > 100 µM | [2] 59.7 µM | [3] 58.7 µM | [4] 63.7 µM | [5] 39.9 µM | [7] > 100 µM | [20] 81.3 µM | [8] 30.7 µM | [9] 47.1 µM | [11] 60.3 µM | [12] 72.1 µM | [13] > 100 µM | [18] 71 µM | [14] 32.8 µM | [15] > 100 µM | [19] > 100 µM | [16] 72.6 µM | [17] > 100 µM

Cc1cc2nnn(C3CCCCO3)c2cc1C (stereo not given)
inactive: [1] > 100 µM | [2] > 100 µM | [3] > 100 µM | [4] > 100 µM | [5] > 100 µM | [7] > 100 µM | [8] > 100 µM | [9] > 100 µM | [10] > 100 µM | [11] > 100 µM | [12] > 100 µM | [13] > 100 µM | [15] > 100 µM | [19] > 100 µM | [16] 95.5 µM | [17] > 100 µM
> 100 µM: [6]

Cc1nc2cn3c(c2c(=O)[nH]1)CCCCC3
> 100 µM: [6]
inactive: [1] > 100 µM | [2] > 100 µM | [3] > 100 µM | [4] > 100 µM | [5] > 100 µM | [7] > 100 µM | [20] > 100 µM | [8] > 100 µM | [9] > 100 µM | [11] > 100 µM | [18] > 100 µM | [14] > 100 µM | [15] > 100 µM | [19] > 100 µM | [16] > 100 µM | [17] > 100 µM

O=C(O)CCCc1ccc2ccccc2c1
inactive: [1] > 100 µM | [2] > 100 µM | [3] > 100 µM | [4] > 100 µM | [5] > 100 µM | [7] > 100 µM | [20] > 100 µM | [8] > 100 µM | [10] > 100 µM | [11] > 100 µM | [12] > 100 µM | [13] > 100 µM | [18] 42.9 µM | [14] > 100 µM | [15] > 100 µM | [19] > 100 µM | [16] > 100 µM | [17] > 100 µM
> 100 µM: [6]

NS(=O)(=O)c1cc(Cl)c(NC(=S)NC(=O)Nc2ccc(Cl)c(Cl)c2)c(Cl)c1
inactive: [1] 39 µM | [2] 55.2 µM | [3] 6.97 µM | [4] 28.4 µM | [5] 59.2 µM | [7] > 100 µM | [20] 40.3 µM | [8] 32.7 µM | [9] 30.8 µM | [10] 26.1 µM | [11] 37.4 µM | [12] 39.6 µM | [13] 80.5 µM | [14] 56.8 µM | [15] 25.5 µM | [19] 77.4 µM | [16] 23.8 µM | [17] 23.1 µM
40.9 µM: [6]

CC(C)=CCC/C(C)=C/CC/C(C)=C/CSc1ccccc1C(=O)O [SALIRASIB]
14.7 µM: [6]
inactive: [1] 18.2 µM | [2] 16.7 µM | [3] 28.3 µM | [4] 18.4 µM | [5] 18 µM | [7] 16.9 µM | [20] 19.5 µM | [8] 20 µM | [9] 23.5 µM | [11] 22.5 µM | [12] 16.5 µM | [13] 19.2 µM | [18] 32 µM | [14] 16.6 µM | [15] 14.4 µM | [19] 25.4 µM | [16] > 10 µM | [17] 17.7 µM

CC(=O)C(I(OS(=O)(=O)c1ccc(C)cc1)c1ccccc1)=P(c1ccccc1)(c1ccccc1)c1ccccc1
> 100 µM: [6]
active: [17] 1.06 µM
inactive: [1] 30.1 µM | [2] 18.9 µM | [3] 26.9 µM | [4] 28 µM | [5] 18 µM | [7] 23.3 µM | [8] 15.8 µM | [9] 17.1 µM | [10] 11.8 µM | [11] > 100 µM | [12] 20.2 µM | [13] 23 µM | [18] 21.4 µM | [14] 23.7 µM | [15] 16 µM | [19] 43.6 µM | [16] 27 µM

Source: ChEMBL document CHEMBL1201862, “PubChem BioAssay data set” (2004)
